Where “and” joins values, the source holds several entries; their conditions need not be identical. Identical values can stand only once.
Experiments:
[1] = tested on: apparently healthy volunteers; assay: Low-dose potassium trial: compliance and side effects; type: in vivo, human; conditions: one person receiving potassium
Procedure: The patients and the investigator were unaware of the type of supplement being given, other than that it was a nutrient. The placebo and potassium chloride pills were provided in identical containers. The adherence of the volunteers to the treatment was assessed at each visit by questioning, and by counting the pills returned.
The baseline blood pressure used for the statistical analysis was the average of the measurements taken during the first week period. For Interval level variables (e.g. BP), differences between groups were tested using the Two-Sample t test while differences within each group were tested with the Paired t test. For Ordinal level variables (e.g. compliance) these tests were performed using the Mann-Whitney Test and the Wilcoxon Signed Rank Test for comparisons between and within the two groups respectively. The Chi-Squared Test was used to assess the significance of differences between the groups for Nominal level variables (e.g. gender).

[2] = tested on: apparently healthy volunteers; assay: Double-blind placebo-controlled low-dose potassium trial: blood pressure (MAP, SBP, DBP); type: in vivo, human; conditions: for DBP Week 3 − Week 0 mean difference / MAP Week 3 − Week 0 mean difference / SBP Week 3 − Week 0 mean difference: change Week 0 to 3, n = 30, mean ± SEM; for DBP Week 6 − Week 0 mean difference / MAP Week 6 − Week 0 mean difference / SBP Week 6 − Week 0 mean difference: change Week 0 to 6, n = 30, mean ± SEM
Procedure: A double-blind, placebo controlled trial on 59 volunteers, randomly assigned to receive 24 mmol/d of slow release potassium chloride (n=30) or a placebo (n=29) was conducted. Measures of BP, anthropometric characteristics and urine analysis for electrolytes were recorded during a one-week baseline period. Supplementation was for six weeks during which BP and changes in weight were assessed and a second 24-hour urine collection made. The primary outcome was the change in mean arterial pressure (MAP). Systolic (SBP) and diastolic (DBP) blood pressure were secondary outcomes.
The study took the form of a randomized double-blind, placebo-controlled trial with the aim of testing the effect of potassium supplementation on BP. […] The study consisted of a baseline period of one week during which blood pressure and body weight were measured at the beginning and end, and a 24-hour urine sample was collected to estimate electrolyte intake. During a six weeks intervention phase, BP and body weight were measured at three-week intervals, and a second 24-hour urine sample was collected during the final week. Potassium chloride was administered as one slow release tablet containing 8 mmol of potassium chloride (Slow-K Tablets 600 mg kindly supplied by Alliance Pharmaceuticals Ltd, Avonbridge House, Chippenham, Wiltshire SN15 2BB, UK) three times a day with meals. The placebo contained sorbitol and fructose.
Each BP measurement was performed following current recommendations (Beevers et al., ABC of hypertension, 4th Ed., London, BMJ Publishing Group, 2000). BP was assessed at the same time of day (within 30 minutes) for every appointment to avoid the influence of circadian variations in BP (Id.), at approximately the same heart rate, and by the same observer using the same instruments throughout the study for each measurement. The subjects were instructed not to smoke, eat or drink during the 30 minutes before each appointment They were also given verbal and written notice to avoid exercising 30 minutes before the appointment, to come to the appointment with an empty bladder and to maintain strictly their usual habits on the day of the appointment (coffee, tea, meals consumed at the same time of the day). BP measurements were performed after the subjects had rested quietly for at least five minutes in the seated position. Two different cuffs (35 cm and 42 cm) were used depending on the arm circumference. At each visit at least three readings for systolic (SBP) and diastolic (DBP) BP and heart rate were taken at two-minute intervals in the left arm using a semi-automated device employing the oscillometric method (Omron M5-I, Omron Healthcare Europe B.V., Hoofddorp, The Netherlands). The first readings of each assessment were ignored to avoid results affected by the defense reaction (Beevers et al., ABC of hypertension, 4th Ed., London, BMJ Publishing Group, 2000) and the last two readings were averaged and recorded. The readings were thereafter confirmed after a two-minute interval with a Hawksley random zero sphygmomanometer (Hawksley and Sons, Lancing, Sussex, UK) because automatic devices may be unsuitable for some individuals for which there is no obvious reason (Id.).
SBP was measured as the point of appearance of the Korotkoff sounds (Phase I) and DBP was measured as the point of complete disappearance of the Korotkoff sounds (Phase V) according to the guidelines given by the British Hypertension Society (Id). All recordings from the semi-automated device agreed well with the random zero sphygmomanometer. Subjects with either SBP≧140 mm Hg or DBP level≧90 mm Hg were considered to be hypertensive.
Mean Arterial Pressure (MAP) was computed as MAP=(2 DBP+SBP)/3 (Vander et al., Human Physiology, The Mechanism of Body Function, 8th Ed., McGraw-Hill, New York, 2000, pp. 407-16 and 626-34, and Wilson et al., Hypertension, 1999, 34, 181-6). […]

hypertensive patients = conditions: 18 hypertensive patients, daily supplement of 48 mmol; cited from earlier work
[3] = 24 mmol/d slow release potassium chloride, n = 30, mean ± SEM
[4] = Week 0 to 6, listed as potassium
[5] = after six weeks of supplementation, versus placebo
[6] = within potassium group, listed as potassium
[7] = within potassium group, change Week 3 to 6, n = 30, mean ± SEM

## [Cl-].[K+] [Potassium, potassium chloride]
[1]
  side effects reported: increase in appetite
[2]; [3]
  DBP Week 3: 72.95 ± 2.08 mm Hg
  DBP Week 6: 71.47 ± 1.90 mm Hg
  MAP Week 3: 87.67 ± 2.20 mm Hg
  MAP Week 6: 84.97 ± 2.06 mm Hg
  SBP Week 3: 117.17 ± 2.71 mm Hg
  SBP Week 6: 111.93 ± 2.52 mm Hg
[2]; Week 0 to 3
  DBP Potassium − placebo Mean Difference (95% CI): −4.11 (−6.09, −2.13)^4 mm Hg
  MAP Potassium − placebo Mean Difference (95% CI): −3.34 (−5.22, −1.47)^3 mm Hg
  SBP Potassium − placebo Mean Difference (95% CI): −1.28 (−4.21, 1.65) mm Hg
[2]; Week 0 to 6
  DBP Potassium − placebo Mean Difference (95% CI): −6.46 (−8.74, −4.19)^4 mm Hg
  MAP Potassium − placebo Mean Difference (95% CI): −7.01 (−9.12, −4.89)^4 mm Hg
  SBP Potassium − placebo Mean Difference (95% CI): −7.60 (−10.46, −4.73)^4 mm Hg
[2]; [4]
  DBP Potassium − placebo Mean Difference (95% CI): marked and significant decrease
  MAP Potassium − placebo Mean Difference (95% CI): marked and significant decrease
  SBP Potassium − placebo Mean Difference (95% CI): marked and significant decrease
[2]; Week 3 to 6
  DBP Potassium − placebo Mean Difference (95% CI): −2.35 (−4.70, −0.00)^5 mm Hg
  MAP Potassium − placebo Mean Difference (95% CI): −3.66 (−5.84, −1.49)^3 mm Hg
  SBP Potassium − placebo Mean Difference (95% CI): −6.32 (−8.84, −3.79)^4 mm Hg
[2]; [5]
  reduction in DBP: 6.46 mm Hg
  reduction in MAP: 7.01 mm Hg
  reduction in SBP: 7.60 mm Hg
[2]; within potassium group
  DBP Week 3 − Week 0 mean difference: −2.53 ± 0.73^6 mm Hg and −2.53 ± 0.73 mm Hg
  MAP Week 3 − Week 0 mean difference: −2.21 ± 0.72^3 mm Hg and −2.21 ± 0.72^2 mm Hg
  SBP Week 3 − Week 0 mean difference: −0.98 ± 1.20 mm Hg
  DBP Week 6 − Week 0 mean difference: −4.02 ± 0.87^5 mm Hg and −4.02 ± 0.87 mm Hg
  MAP Week 6 − Week 0 mean difference: −4.91 ± 0.80^5 mm Hg and −4.91 ± 0.79 mm Hg
  SBP Week 6 − Week 0 mean difference: −6.22 ± 1.07^5 mm Hg and −6.22 ± 1.10 mm Hg
[2]; [6]
  DBP Week 3 − Week 0 mean difference: significant decrease
  MAP Week 3 − Week 0 mean difference: significant decrease
  SBP Week 3 − Week 0 mean difference: not significantly reduced
  DBP Week 6 − Week 0 mean difference: decreased significantly
  MAP Week 6 − Week 0 mean difference: decreased significantly
  SBP Week 6 − Week 0 mean difference: decreased significantly
[2]; [7]
  DBP Week 6 − Week 3 mean difference: −1.48 ± 0.98 mm Hg and −1.48 ± 0.97 mm Hg
  MAP Week 6 − Week 3 mean difference: −2.70 ± 0.91^4 mm Hg and −2.70 ± 0.91 mm Hg
  SBP Week 6 − Week 3 mean difference: −5.23 ± 1.03^5 mm Hg and −5.23 ± 1.00 mm Hg
[2]; within potassium group, change Week 3 to 6, n = 30, mean ± SEM, listed as potassium
  SBP Week 6 − Week 3 mean difference: decreased significantly
Hypertensive patients
  effect on BP: lower BP

Source: patent US20050214387A1, “Low-dose potassium supplementation for the prevention and treatment of hypertension” (priority 2002, published 2005)
